In patent publication US20170216315A1 (priority 2016, published 2017):
Marks after values point to notes of the source that are not given here.

Experiments:
catalase (CAT) = assay: Activity of CAT in mouse liver; format: in vivo, mice; conditions: for Activity of CAT: liver homogenate, alcoholic liquid diet, 4 weeks
[1] = tested on: Superoxide dismutase (SOD); assay: Activity of SOD in mouse liver; format: in vivo, mice; conditions: for Activity of SOD: liver homogenate, alcoholic liquid diet, 4 weeks
[2] = Feed intake, relative weight of organs and of fat pads; format: in vivo, mice; conditions: for Relative weight of abdominal fat pad / Relative weight of epididymal fat pad / Relative weight of heart / Relative weight of kidney / Relative weight of liver / Relative weight of spleen: alcoholic liquid diet, week 4
Procedure: C-1. The feed intakes of mice were recorded every day (4 mice from each group were randomly picked for recording, and an average of the 4 mice was taken). The changes in the mice body weight were recorded at the last day of every week (i.e., an average of 8 mice from each group), over a four-week period.
C-4. After “C-3” was completed, the mice were sacrificed. The weights of the mice hearts, livers, kidneys, spleens, and abdominal and epididymal fat pads were measured and recorded; the mice livers were washed with sterilized saline, and then the liver appearances were recorded by a camera. The collected organs and feces were stored at −80° C. for the following analysis (recording, sample collection and storage were conducted for all of the 8 mice from each group).
The average values of daily feed intakes of mice of each group recorded in [Preparation Examples] Besides, the weights of mice organ and fat of each group obtained from [Preparation Examples] C-4 were averaged, respectively, and then the average weights (g) were divided by the average body weights of mice in week 4 from the corresponding group to obtain the relative weights of organs and the relative weights of fat.

[3] = tested on: TLR4, MyD88, NF-κB, iNOS, COX-2, α-SMA; assay: Expressions of pro-inflammatory genes in liver (real-time PCR); format: in vivo, mice; conditions: EK100 1, 5, 10 mg/kg/day vs EtOH group, p<0.05, FIG. 10
Procedure: (§1) C-4 was put into a 0.8 ml RNAlater containing an RNA stabilizer (Qiagen company, United States), and then the commercial kit (E.Z.N.A™ Tissue RNA kit, purchased from Omega Bio-Tek company, United States) was used to extract the mRNA therein. After that, the mRNA sample obtained therefrom was reverse transcribed to provide cDNA, and then specific primers (as shown in Table 2) were used to conduct real-time polymerase chain reaction (real-time PCR) of the cDNA to observe the expression of each gene in the mouse liver, wherein the operation steps of the real-time polymerase chain reaction were as follows: (i) 2 μl of cDNA (50 ng/μl), 5 μl of SYBR Green (Molecular Probes company, United States, Applied Biosystems/Fast SYBR® Green Master Mix), 2 μl of RNase-free water, 1 μl of forward primer, and 1 μl of reverse primer were well mixed and then centrifuged; (ii) the above sample was put into a real-time polymerase chain reaction system (Applied Biosystems/StepOne Real time PCR system) to detect the expression of each gene, wherein the expression of GAPDH was used as the positive control.

CYP2E1 = assay: Protein expression of CYP2E1 in liver (western blot); format: in vivo, mice; conditions: EK100 1, 5, 10 mg/kg/day vs EtOH group, p<0.05, FIGS. 13A, 13B
[4] = tested on: PPAR-α, RXR-α, CPT1, UCP2; assay: Expressions of fatty acid β-oxidation-promoting genes in liver (real-time PCR); format: in vivo, mice; conditions: EK100 1, 5, 10 mg/kg/day vs EtOH group, p<0.05, FIG. 5
Procedure: as §1
Therefore, the expressions of the above genes in the mouse liver of each group were compared by the analysis method of [Preparation Examples]

male C57BL/6 mice [5] = assay: TEAC value of liver homogenate; conditions: for TEAC value: liver homogenate, alcoholic liquid diet, 4 weeks
[6] = tested on: alcohol dehydrogenase (ADH); assay: Activity of ADH in liver homogenate; format: in vivo, mice; conditions: EK100 1, 5, 10 mg/kg/day vs control or EtOH group; p<0.05; FIG. 14A
Procedure: D-3 were analyzed. The operation steps were as follows: (i) 50 μl of liver homogenate, 50 μl of phosphate-buffered saline (PBS), and 1 ml of 0.1 M glycine-NaOH buffer (pH 10.8, 10 mM NAD^+) were well mixed; the mixture was left standing in the dark at room temperature for 4 minutes; and then the absorbance (A) of the mixture was measured at 340 nm wavelength; (ii) 50 μl of liver homogenate, 50 μl of phosphate-buffered saline (PBS), and 1 ml of 0.1 M glycine-NaOH buffer (pH 10.8, 10 mM NAD^+, 0.016 M ethanol) were well mixed; the mixture was left standing in the dark at room temperature for 4 minutes; and then the absorbance (B) of the mixture was measured at 340 nm wavelength; (iii) absorbance (A) and absorbance (B) were substituted into formula 2 below to calculate the activity of ADH (μmole/min/mg protein).

male C57BL/6 mice [7] = assay: Hepatitis histological activity index (HAI score); format: in vivo; conditions: EK100 1, 5, 10 mg/kg/day vs EtOH group; p<0.05; FIG. 11
Source text: To further observe the inflammation of mouse liver, the internationally accepted hepatitis histological activity index (HAI score) was used to categorize the hepatitis activity into the portal zone, lobuli hepatis zone, and periportal zone, which were scored with 0 to 10 points (as shown in Table 8). […] J Insur Med. 33: 110-113 (2001),” which is incorporated herein for reference.

ADH, ALDH, CYP2E1, CAT = assay: Gene expressions of alcohol metabolism-related enzymes in liver (real-time PCR); format: in vivo, mice; conditions: EK100 1, 5, 10 mg/kg/day vs EtOH group; p<0.05; FIG. 12
Procedure: as §1
The expressions of alcohol metabolism-related enzymes (i.e., ADH, ALDH, CYP2E1, and CAT) in mouse liver of each group were compared by the analysis method of [Preparation Examples]

male C57BL/6 mice [8] = assay: TBARS value of liver homogenate; conditions: for TBARS value: liver homogenate, alcoholic liquid diet, 4 weeks
male C57BL/6 mice [9] = assay: Amounts of TAG and TC in serum; format: in vivo; conditions: EK100 1, 5, 10 mg/kg/day vs EtOH group; p<0.05; FIG. 2A
[10] = EK100 1, 5, 10 mg/kg/day vs EtOH group, p<0.05

CC(C)[C@@H](C)/C=C/[C@@H](C)[C@H]1CC[C@H]2C3=CCC4C[C@@H](O)CC[C@]4(C)C3=CC[C@]12C (some centres unmarked) [EK100]
Activity of CAT in liver compared to EtOH (catalase (CAT); [10]): significantly increased | Activity of CAT (catalase (CAT); EK100_1X: 1 mg/kg/day gavage): 175.80 ± 6.89^a unit/mg protein | Activity of CAT (catalase (CAT); EK100_5X: 5 mg/kg/day gavage): 145.43 ± 5.77^b unit/mg protein | Activity of CAT (catalase (CAT); EK100_10X: 10 mg/kg/day gavage): 137.16 ± 6.79^bc unit/mg protein | Activity of SOD in liver compared to EtOH ([1]; EK100 10 mg/kg/day (EK100_10X) vs EtOH group, p<0.05): significantly increased | Activity of SOD ([1]; EK100_1X: 1 mg/kg/day gavage): 77.56 ± 3.33^c munit/mg protein | Activity of SOD ([1]; EK100_5X: 5 mg/kg/day gavage): 90.40 ± 6.16^b munit/mg protein | Activity of SOD ([1]; EK100_10X: 10 mg/kg/day gavage): 118.47 ± 4.64^a munit/mg protein | Relative weight of epididymal fat pad compared to EtOH [2, 10]: significantly lower | Relative weight of abdominal fat pad ([2]; EK100_1X: 1 mg/kg/day gavage): 0.21 ± 0.03^c g/100 g of mice body weight | Relative weight of epididymal fat pad ([2]; EK100_1X: 1 mg/kg/day gavage): 1.30 ± 0.11^c g/100 g of mice body weight | Relative weight of heart ([2]; EK100_1X: 1 mg/kg/day gavage): 0.53 ± 0.03^bc g/100 g of mice body weight | Relative weight of kidney ([2]; EK100_1X: 1 mg/kg/day gavage): 1.33 ± 0.04^a g/100 g of mice body weight | Relative weight of liver ([2]; EK100_1X: 1 mg/kg/day gavage): 4.50 ± 0.14^a g/100 g of mice body weight | Relative weight of spleen ([2]; EK100_1X: 1 mg/kg/day gavage): 0.53 ± 0.03^a g/100 g of mice body weight | Relative weight of abdominal fat pad ([2]; EK100_5X: 5 mg/kg/day gavage): 0.41 ± 0.06^b g/100 g of mice body weight | Relative weight of epididymal fat pad ([2]; EK100_5X: 5 mg/kg/day gavage): 1.42 ± 0.14^c g/100 g of mice body weight | Relative weight of heart ([2]; EK100_5X: 5 mg/kg/day gavage): 0.57 ± 0.04^ab g/100 g of mice body weight | Relative weight of kidney ([2]; EK100_5X: 5 mg/kg/day gavage): 1.28 ± 0.05^a g/100 g of mice body weight | Relative weight of liver ([2]; EK100_5X: 5 mg/kg/day gavage): 4.33 ± 0.20^a g/100 g of mice body weight | Relative weight of spleen ([2]; EK100_5X: 5 mg/kg/day gavage): 0.55 ± 0.04^a g/100 g of mice body weight | Relative weight of abdominal fat pad ([2]; EK100_10X: 10 mg/kg/day gavage): 0.40 ± 0.04^b g/100 g of mice body weight | Relative weight of epididymal fat pad ([2]; EK100_10X: 10 mg/kg/day gavage): 1.62 ± 0.07^c g/100 g of mice body weight | Relative weight of heart ([2]; EK100_10X: 10 mg/kg/day gavage): 0.51 ± 0.01^bc g/100 g of mice body weight | Relative weight of kidney ([2]; EK100_10X: 10 mg/kg/day gavage): 1.14 ± 0.02^b g/100 g of mice body weight | Relative weight of liver ([2]; EK100_10X: 10 mg/kg/day gavage): 4.48 ± 0.10^a g/100 g of mice body weight | Relative weight of spleen ([2]; EK100_10X: 10 mg/kg/day gavage): 0.55 ± 0.02^a g/100 g of mice body weight | Expressions of pro-inflammatory genes in liver compared to EtOH [3]: significantly decreased | Protein expression of CYP2E1 in liver compared to EtOH (CYP2E1): significantly decreased | Expressions of fatty acid β-oxidation-promoting genes in liver compared to EtOH [4]: significantly increased | TEAC value of liver compared to EtOH (male C57BL/6 mice [5]; [10]): significantly increased | TEAC value (male C57BL/6 mice [5]; EK100_1X: 1 mg/kg/day gavage): 69.18 ± 2.77^a nmol/mg protein | TEAC value (male C57BL/6 mice [5]; EK100_5X: 5 mg/kg/day gavage): 75.23 ± 2.61^a nmol/mg protein | TEAC value (male C57BL/6 mice [5]; EK100_10X: 10 mg/kg/day gavage): 70.50 ± 2.25^a nmol/mg protein | Activity of ADH in liver compared to control or EtOH [6]: significantly increased | HAI score of periportal inflammation (necrosis) compared to EtOH (male C57BL/6 mice [7]): significantly decreased | HAI score of portal inflammation compared to EtOH (male C57BL/6 mice [7]): significantly decreased | Gene expression of ADH in liver compared to EtOH (ADH, ALDH, CYP2E1, CAT): significantly increased | Gene expression of ALDH in liver compared to EtOH (ADH, ALDH, CYP2E1, CAT): significantly increased | Gene expression of CAT in liver compared to EtOH (ADH, ALDH, CYP2E1, CAT): significantly increased | Gene expression of CYP2E1 in liver compared to EtOH (ADH, ALDH, CYP2E1, CAT): significantly decreased | TBARS value of liver compared to EtOH (male C57BL/6 mice [8]; [10]): significantly decreased | TBARS value (male C57BL/6 mice [8]; EK100_1X: 1 mg/kg/day gavage): 0.56 ± 0.04^b nmol malondialdehyde/mg protein | TBARS value (male C57BL/6 mice [8]; EK100_5X: 5 mg/kg/day gavage): 0.54 ± 0.05^b nmol malondialdehyde/mg protein | TBARS value (male C57BL/6 mice [8]; EK100_10X: 10 mg/kg/day gavage): 0.46 ± 0.04^b nmol malondialdehyde/mg protein | Amount of TAG in serum compared to EtOH (male C57BL/6 mice [9]): significantly decreased | Amount of TC in serum compared to EtOH (male C57BL/6 mice [9]): significantly decreased
